The target in assay [1] is T1, Alpha-1A adrenergic receptor (Rattus norvegicus) (UniProt P43140).
T1 sequence (whole entry): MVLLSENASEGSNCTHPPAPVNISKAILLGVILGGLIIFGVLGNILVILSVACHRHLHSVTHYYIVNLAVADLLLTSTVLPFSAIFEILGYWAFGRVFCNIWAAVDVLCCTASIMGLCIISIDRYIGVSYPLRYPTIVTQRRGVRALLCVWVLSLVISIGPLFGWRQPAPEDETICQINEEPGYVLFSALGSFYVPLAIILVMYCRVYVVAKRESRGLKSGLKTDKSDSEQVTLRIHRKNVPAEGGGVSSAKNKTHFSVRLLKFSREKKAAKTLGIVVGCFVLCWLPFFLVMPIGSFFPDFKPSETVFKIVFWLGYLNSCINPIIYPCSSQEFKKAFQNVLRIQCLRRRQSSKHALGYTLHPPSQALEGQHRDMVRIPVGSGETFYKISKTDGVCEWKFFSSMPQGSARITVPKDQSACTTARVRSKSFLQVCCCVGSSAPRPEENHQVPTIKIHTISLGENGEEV
In words: Noncompetitive antagonist activity at alpha1A adrenergic receptor in Rattus norvegicus (rat) vas deferens assessed as inhibition of (-)-noradrenaline-induced contraction.

The species entered for assay [2] is Rattus norvegicus. In words: Selectivity ratio for antagonist activity at alpha1D adrenergic receptor in Rattus norvegicus (rat) aorta to antagonist activity at alpha1A adrenergic receptor in vas deferens.
In assay [3] the target is T2, Alpha-1B adrenergic receptor (Rattus norvegicus) (UniProt P15823).
T2 sequence (whole entry): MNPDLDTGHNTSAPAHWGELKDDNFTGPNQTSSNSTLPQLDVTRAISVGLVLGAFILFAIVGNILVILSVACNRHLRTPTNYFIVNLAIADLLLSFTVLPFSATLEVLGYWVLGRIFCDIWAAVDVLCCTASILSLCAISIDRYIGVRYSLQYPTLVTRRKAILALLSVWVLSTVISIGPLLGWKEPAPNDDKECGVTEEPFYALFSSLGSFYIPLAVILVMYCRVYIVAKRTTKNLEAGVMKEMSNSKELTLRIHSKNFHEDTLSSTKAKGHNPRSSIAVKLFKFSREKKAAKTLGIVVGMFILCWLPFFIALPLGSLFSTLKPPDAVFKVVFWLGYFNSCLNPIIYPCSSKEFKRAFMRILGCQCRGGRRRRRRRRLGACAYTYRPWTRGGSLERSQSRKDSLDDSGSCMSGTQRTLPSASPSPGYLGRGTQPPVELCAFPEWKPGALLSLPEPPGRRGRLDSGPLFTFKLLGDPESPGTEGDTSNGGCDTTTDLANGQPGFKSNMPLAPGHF
The assay can be described thus: Noncompetitive antagonist activity at alpha1B adrenergic receptor in Rattus norvegicus (rat) spleen assessed as inhibition of (-)-phenylephrine-induced contraction.

The target of assay [4] is T3, Alpha-1B adrenergic receptor (Homo sapiens, UniProt P35368).
T3 sequence (P35368 whole entry): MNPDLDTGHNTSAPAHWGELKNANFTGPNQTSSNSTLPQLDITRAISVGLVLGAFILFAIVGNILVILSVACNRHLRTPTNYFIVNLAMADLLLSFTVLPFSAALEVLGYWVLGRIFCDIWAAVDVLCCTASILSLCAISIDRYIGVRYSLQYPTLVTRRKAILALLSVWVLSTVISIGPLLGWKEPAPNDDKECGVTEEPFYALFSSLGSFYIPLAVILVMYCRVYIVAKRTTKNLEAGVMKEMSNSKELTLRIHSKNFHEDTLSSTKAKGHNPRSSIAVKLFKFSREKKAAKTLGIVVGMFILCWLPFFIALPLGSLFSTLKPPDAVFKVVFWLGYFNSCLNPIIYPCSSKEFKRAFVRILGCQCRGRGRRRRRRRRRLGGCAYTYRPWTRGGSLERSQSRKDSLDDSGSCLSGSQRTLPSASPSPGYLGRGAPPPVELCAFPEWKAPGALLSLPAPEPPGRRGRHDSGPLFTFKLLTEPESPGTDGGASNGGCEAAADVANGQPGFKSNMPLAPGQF
In words: Displacement of [3H]prazosin from Homo sapiens (human) alpha1B adrenergic receptor.

Assay [5] is filed under the species Rattus norvegicus. The assay can be described thus: Selectivity ratio for antagonist activity at alpha1B adrenergic receptor in Rattus norvegicus (rat) spleen to antagonist activity at alpha1A adrenergic receptor in rat vas deferens. It is filed as tissue-based.
Assay [6] deals with T4, Alpha-1A adrenergic receptor (Homo sapiens, UniProt P35348).
T4 sequence (P35348 whole entry): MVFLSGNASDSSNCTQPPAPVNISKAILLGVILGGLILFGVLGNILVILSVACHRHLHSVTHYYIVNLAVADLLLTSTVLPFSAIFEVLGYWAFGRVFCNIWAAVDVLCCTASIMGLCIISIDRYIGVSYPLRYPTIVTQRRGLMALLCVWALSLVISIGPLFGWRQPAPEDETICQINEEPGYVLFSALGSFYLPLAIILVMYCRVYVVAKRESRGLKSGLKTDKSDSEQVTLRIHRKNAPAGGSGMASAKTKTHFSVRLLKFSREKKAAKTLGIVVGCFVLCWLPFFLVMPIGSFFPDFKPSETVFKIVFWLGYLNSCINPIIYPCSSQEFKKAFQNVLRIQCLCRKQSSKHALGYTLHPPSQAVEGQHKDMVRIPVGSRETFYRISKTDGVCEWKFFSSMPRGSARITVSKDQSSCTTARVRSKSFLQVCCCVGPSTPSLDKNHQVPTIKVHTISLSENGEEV
In words: Displacement of [3H]prazosin from Homo sapiens (human) alpha1A adrenergic receptor.

The species named for assay [7] is Rattus norvegicus. In words: Selectivity ratio for antagonist activity at alpha1B adrenergic receptor in Rattus norvegicus (rat) spleen to antagonist activity at alpha1D adrenergic receptor in aorta. The format is tissue-based.
The target in assay [8] is T5, Alpha-1D adrenergic receptor (Rattus norvegicus, UniProt P23944).
T5 sequence (P23944 whole entry): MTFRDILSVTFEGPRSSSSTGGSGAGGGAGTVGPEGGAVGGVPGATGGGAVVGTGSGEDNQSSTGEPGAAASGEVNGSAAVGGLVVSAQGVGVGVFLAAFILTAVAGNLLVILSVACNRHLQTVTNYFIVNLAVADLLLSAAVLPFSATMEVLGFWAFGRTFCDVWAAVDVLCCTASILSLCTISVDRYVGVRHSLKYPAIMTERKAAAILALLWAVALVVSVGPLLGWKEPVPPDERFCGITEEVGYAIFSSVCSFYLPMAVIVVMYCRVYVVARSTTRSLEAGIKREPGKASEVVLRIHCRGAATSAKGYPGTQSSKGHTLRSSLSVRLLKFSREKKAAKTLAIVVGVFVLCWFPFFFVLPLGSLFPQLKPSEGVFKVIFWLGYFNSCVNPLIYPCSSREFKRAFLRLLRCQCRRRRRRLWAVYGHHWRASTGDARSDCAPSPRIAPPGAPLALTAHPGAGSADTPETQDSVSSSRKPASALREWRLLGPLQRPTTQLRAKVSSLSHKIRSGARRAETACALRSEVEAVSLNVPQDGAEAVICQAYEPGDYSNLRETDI
In words: Competitive antagonist activity at alpha1D adrenergic receptor in Rattus norvegicus (rat) aorta assessed as inhibition of (-)-noradrenaline-induced contraction. To be noted: read-out: pA2 (converted).

Assay [9] has as its target T6, Alpha-1D adrenergic receptor (Homo sapiens, UniProt P25100).
T6 sequence (P25100 whole entry): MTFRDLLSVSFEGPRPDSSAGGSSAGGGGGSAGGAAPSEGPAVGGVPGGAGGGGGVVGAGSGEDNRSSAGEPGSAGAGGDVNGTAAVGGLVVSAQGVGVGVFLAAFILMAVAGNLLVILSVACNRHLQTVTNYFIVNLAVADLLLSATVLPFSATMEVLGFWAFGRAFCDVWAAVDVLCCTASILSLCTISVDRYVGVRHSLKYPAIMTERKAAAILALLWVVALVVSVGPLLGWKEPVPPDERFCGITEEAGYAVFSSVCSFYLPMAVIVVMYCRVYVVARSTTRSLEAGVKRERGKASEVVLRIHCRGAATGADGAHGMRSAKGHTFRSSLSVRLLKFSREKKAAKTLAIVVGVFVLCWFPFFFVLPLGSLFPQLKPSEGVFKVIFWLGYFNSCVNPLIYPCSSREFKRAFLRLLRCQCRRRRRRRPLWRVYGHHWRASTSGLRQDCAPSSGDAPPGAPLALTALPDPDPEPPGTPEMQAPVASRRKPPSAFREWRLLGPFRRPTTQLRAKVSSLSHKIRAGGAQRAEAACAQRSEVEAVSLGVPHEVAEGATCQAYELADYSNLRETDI
In words: Displacement of [3H]prazosin from Homo sapiens (human) alpha1D adrenergic receptor.

Assay [10] concerns the target T7, Alpha-1A adrenergic receptor (Rattus norvegicus, UniProt P43140).
T7 sequence (P43140 whole entry): T1 sequence (whole entry)
The assay can be described thus: Competitive antagonist activity at alpha1A adrenergic receptor in Rattus norvegicus (rat) vas deferens assessed as inhibition of (-)-noradrenaline-induced contraction. To be noted: read-out: pA2 (converted).

Assay [11] concerns the target T3, Alpha-1B adrenergic receptor. In words: Binding affinity to alpha1B adrenoreceptor (unknown origin) by radioligand binding assay.
For assay [12], the target named is T7, Alpha-1A adrenergic receptor. In words: Antagonist activity at alpha1A adrenoreceptor in Rattus norvegicus (rat) small mesenteric artery. To be noted: read-out: pA2 (converted).

With `COc1cc2nc(N3CCN(C(=O)c4ccc(Br)o4)[C@H]4CCCC[C@@H]43)nc(N)c2cc1OC`, the pKb in assay [1] came out at 7.53; in assay [3], 9.83. The Selectivity ratio in the assay filed under Rattus norvegicus [2] is 0.5; in the assay listed under Rattus norvegicus [5], 199; in the assay listed under Rattus norvegicus [7], 398. Besides, the Ki in assay [4] was 0.309 nM; in assay [6], 3.47 nM; in [9], 1.55 nM. Also, the Kb in assay [8] was 58.9 nM.
For the compound `COc1cc2nc(N3CCN(C(=O)c4ccc(C(C)=O)o4)[C@H]4CCCC[C@@H]43)nc(N)c2cc1OC`, the figures for the pKb in [1] and in assay [3] were 7.37 and 9.85, respectively. Also, the values for the Selectivity ratio in the assay listed under Rattus norvegicus [2], in the assay listed under Rattus norvegicus [5] and in the assay listed under Rattus norvegicus [7] were 0.2, 302 and 1510, respectively. In addition, the figures for the Ki in assay [4], in assay [6] and in [9] were 1.38 nM, 25.7 nM and 7.41 nM, respectively. Further, in assay [8], the Kb is 214 nM.
On to `COc1ccc(C(=O)N2CCN(c3nc(N)c4cc(OC)c(OC)cc4n3)[C@H]3CCCC[C@@H]32)o1`, for which the results for the Selectivity ratio in the assay listed under Rattus norvegicus [2], in the assay filed under Rattus norvegicus [5] and in the assay listed under Rattus norvegicus [7] were 1.6, 724 and 457, respectively. The negative-log Kb (pKb) in [3] is 9.71. The Ki in assay [4] is 0.871 nM; in assay [6], 27.5 nM; in assay [9], 3.63 nM. Moreover, the Kb in [8] was 89.1 nM; in [10] it was 141 nM.
In assay [11], `COc1cc2nc(N3CCN(C(=O)c4ccco4)[C@H]4CCCC[C@H]43)nc(N)c2cc1OC` [(+)-CYCLAZOSIN] gave an inhibition constant Ki of 0.692 nM. In addition, the Kb in assay [12] was 16.6 nM.
For the compound `COc1cc2nc(N3CCN(C(=O)c4ccc(C)o4)[C@H]4CCCC[C@@H]43)nc(N)c2cc1OC`, the pKb in assay [1] was 6.67; in assay [3] it was 9.28. The Selectivity ratio in the assay listed under Rattus norvegicus [2] was found to be 2.3; in the assay filed under Rattus norvegicus [5] it was 407; in the assay listed under Rattus norvegicus [7], 174. For the same compound, the Ki in [4] is 0.871 nM; in assay [6] it was 23.4 nM; in [9], 4.79 nM. Moreover, the Kb in assay [8] is 91.2 nM.

For the origin of these results see ChEMBL document CHEMBL3045834 (Med Chem Res, 2004).
